Assays:
MEC1 CLL cell line [1] = assay: cells; design: alamarBlue (resazurin reduction) viability assay in MEC1 CLL cells; conditions: Homo sapiens, MEC1, 24 h; read-out: alamarBlue EC50 (uM) average
Text: Defective p53-signalling increases genomic instability and drives tumour progression. A high frequency of p53 inactivation is found in relapsed, treatment-resistant, high risk CLL.[30] […] Owing to resource availability a subset of up to ten of these compounds was prioritised for further investigation. Compounds 2d, 2e, 2j, 2aa, 5a, 5d, 5e, 5f, 5ab and 6b were selected on the basis of reasons including ease of synthetic access, diversity across the chemical space probed and novelty. Those prepared under conditions (i)Scheme 1 (2d, 5a and 6b) were available on a scale and in a purity to directly permit follow-up studies, whereas compounds prepared under conditions (ii)Scheme 1 were prepared on a small scale so were resynthesised. These seven compounds (2e, 2j, 2aa, 5d, 5e, 5f and 5ab) were isolated on >30 mg scale in high purity and progressed to more following studies. Biological efforts at Sygnature Discovery (where differing to University of Birmingham) MEC1 cells were obtained from the American Type Culture Collection (Manassas, VA 20110 USA) and were routinely cultured in RPMI 1640 medium (Sigma-Aldrich) supplemented with 1% L-glutamine (Sigma-Aldrich), 1% Penicillin/Streptomycin (Sigma-Aldrich) and 10% FBS (Gibco). The MEC1 proliferation assay was conducted by performing a re-feed of the MEC1 cells 24 h prior to cell seeding. On the day of the assay, cells were seeded into a 384-well assay plate at a density of 12,500 cells/well in 25 μL of complete MEC1 medium. Compound treatment was performed on the day of cell seeding, with compounds prepared as duplicate compound response curves (final DMSO concentration of 0.6%). Post compound treatment, MEC1 assay plates were returned to a 37 °C/5% CO2 incubator for 24 h of incubation. Following compound treatment, cellular viability was determined by measuring reduction of alamarBlue® reagent (Invitrogen). alamarBlue® reagent (2.5 μL) was added to each assay well to give a 1:10 dilution of the neat stock and assay plates were incubated for 3 h at 37 °C/5% CO2. Reduction of alamarBlue® was determined using an Envision Xcite plate reader (Perkin Elmer) with an excitation wavelength of 560 nm set and an emission wavelength of 590 nm set. Cell viability was determined by normalising raw fluorescent data to a cell only high control and Parthenolide treated low control to provide percentage viability readout. Data was plotted and EC50 values extracted and reported EC50s represent an average of at least two independent assays.

MEC1 CLL cell line [2] = assay: alamarBlue assay, in vitro antileukaemic activity against MEC1 CLL cell line; type: cell-based
Text: Defective p53-signalling increases genomic instability and drives tumour progression. A high frequency of p53 inactivation is found in relapsed, treatment-resistant, high risk CLL.[30] […] Owing to resource availability a subset of up to ten of these compounds was prioritised for further investigation. Compounds 2d, 2e, 2j, 2aa, 5a, 5d, 5e, 5f, 5ab and 6b were selected on the basis of reasons including ease of synthetic access, diversity across the chemical space probed and novelty. Those prepared under conditions (i)Scheme 1 (2d, 5a and 6b) were available on a scale and in a purity to directly permit follow-up studies, whereas compounds prepared under conditions (ii)Scheme 1 were prepared on a small scale so were resynthesised. These seven compounds (2e, 2j, 2aa, 5d, 5e, 5f and 5ab) were isolated on >30 mg scale in high purity and progressed to more following studies.
Following the identification of 5f as the most promising drug-like derivative of PTL from the aforementioned parallel/high-throughput screening, the anti-leukaemic activity of 5f was tested once more and compared directly with that of PTL (1) and DMAPT (2a), which serve as comparators and positive controls.
Amine 7 was successfully prepared as follows: 4-Piperidinecarboxylic acid was N-Boc protected to deliver 8 in 92% yield.[43] In order to confidently assign the NMR spectra of compound 8 J-MOD, HSQC and ^1H–^1H COSY were helpful, particularly in establishing that a broad resonance in the proton-decoupled ^13C NMR spectrum, centred on 42.8 ppm, corresponds to the ring-carbons bonded to nitrogen. The carboxylic acid of 8 was converted to the corresponding ethyl-3-keto-propanoate 9 in 24% yield. Conversion of 9 to the N-Boc protected congener 10, was achieved by treatment with acetamidine hydrochloride and potassium carbonate, furnishing 10 in 77% yield. Treatment with trifluoroacetic acid delivered desired compound 7 in 99% yield for the Boc-deprotection step (scale 200 mg, 17% over four linear steps). Thus, evidencing accessibility of amine 7 and with it in hand, it was timely to probe any activity arising from the amine alone. MEC1 sensitivity to 1, 5f and 7 was compared in parallel using the alamarBlue® assay (Fig. 6). […] A pre-peer-reviewed preprint of this article was deposited and may be viewed elsewhere.[44]

Structure (SMILES)	EC50 (MEC1 CLL cell line [1]) [µM]	other results
CC1=CCCC2(C)OC2C2OC(=O)C(CN3CCN(Cc4cccc(C)c4)C(=O)C3)C2CC1 (stereo not drawn) [5o]	> 30	
CC1=CCCC2(C)OC2C2OC(=O)C(CN3CCCCC3)C2CC1 (stereo not drawn) [5b]	7.8	
CCCc1nc(CN(CC)CC2C(=O)OC3C2CCC(C)=CCCC2(C)OC32)no1 (stereo not drawn) [2s]	> 30	
COc1ccc(-c2noc(CNCC3C(=O)OC4C3CCC(C)=CCCC3(C)OC43)n2)cc1OC (stereo not drawn) [4k]	> 30	
CC1=CCCC2(C)OC2C2OC(=O)C(CNCC(C)(C)N3CCOCC3)C2CC1 (stereo not drawn) [4r]	> 30	
C=C1C(=O)O[C@@H]2[C@H]3O[C@]3(C)CC/C=C(\C)CC[C@@H]12 [PTL, parthenolide]		EC50 (MEC1 CLL cell line [2]; Homo sapiens, MEC1, MEC1 cells, alamarBlue, 1, 5f and 7 compared in parallel, CalcuSyn, read-out: EC50): 3.6 µM; EC50 (MEC1 CLL cell line [2]; Homo sapiens, MEC1, MEC1 cells, alamarBlue, direct comparison of 5f with PTL and DMAPT, n = 5, read-out: EC50): 6.2 µM
C/C1=C\CC[C@@]2(C)O[C@@H]2[C@H]2OC(=O)[C@@H](CN3CCC(c4ccc(C(N)=O)cc4)CC3)[C@@H]2CC1 [Compound 5h]	13.8	EC50 (MEC1 CLL cell line [2]; Homo sapiens, MEC1, MEC1 cell line, alamarBlue assay, library screen, read-out: EC50 ave.): < 15 µM
CC1=CCCC2(C)OC2C2OC(=O)C(CN(C)Cc3nnc(-c4ccccc4)o3)C2CC1 (stereo not drawn) [2n]	> 30	
CC1=CCCC2(C)OC2C2OC(=O)C(CN(Cc3ccncc3)Cc3ccc4c(c3)OCO4)C2CC1 (stereo not drawn) [2u]	> 30	
CC1=CCCC2(C)OC2C2OC(=O)C(CSCCO)C2CC1 (stereo not drawn) [Compound 3]		activity against the MEC1 CLL cell line (MEC1 CLL cell line [2]; result in words): lack of activity
CC1=CCCC2(C)OC2C2OC(=O)C(CNCc3ccco3)C2CC1 (stereo not drawn) [4m]	> 30	
CC1=CCCC2(C)OC2C2OC(=O)C(CN(C)Cc3n[nH]c4c3CCCCC4)C2CC1 (stereo not drawn) [2k]	19.3	
CC1=CCCC2(C)OC2C2OC(=O)C(CN(C)Cc3nc4cc(C)c(C)cc4[nH]3)C2CC1 (stereo not drawn) [2y]	> 30	
CCN(Cc1cc(Cl)ccc1OC)CC1C(=O)OC2C1CCC(C)=CCCC1(C)OC21 (stereo not drawn) [2l]	19.8	
CC1=CCCC2(C)OC2C2OC(=O)C(CN(Cc3ccco3)Cc3cccs3)C2CC1 (stereo not drawn) [2t]	> 30	
CC1=CCCC2(C)OC2C2OC(=O)C(CNCc3ccc(N(C)C)cc3)C2CC1 (stereo not drawn) [4n]	> 30	
COCCNCC1C(=O)OC2C1CCC(C)=CCCC1(C)OC21 (stereo not drawn) [4b]	> 30	
CCOc1cccc(CN(CCO)CC2C(=O)OC3C2CCC(C)=CCCC2(C)OC32)c1 (stereo not drawn) [2i]	19.2	
CC1=CCCC2(C)OC2C2OC(=O)C(CN(C)Cc3cccc(C(F)(F)F)c3)C2CC1 (stereo not drawn) [2p]	> 30	
CC1=CCCC2(C)OC2C2OC(=O)C(CN3CCC(C#N)(c4ccccc4)CC3)C2CC1 (stereo not drawn) [5p]	> 30	
CC1=CCCC2(C)OC2C2OC(=O)C(CN(C)CCO)C2CC1 (stereo not drawn) [Compound 2c]		EC50 (MEC1 CLL cell line [2]; Homo sapiens, MEC1, read-out: EC50 ave., MEC1 cell line, alamarBlue assay, library screen): < 15 µM

Structure (SMILES)	EC50 (MEC1 CLL cell line [1]) [µM]	other results
CC1=CCCC2(C)OC2C2OC(=O)C(CN3CCN(c4ncccn4)CC3)C2CC1 (stereo not drawn) [5m]	24.8	
CC1=CCCC2(C)OC2C2OC(=O)C(CNCc3ccccc3)C2CC1 (stereo not drawn) [4c]	20.4	
CC1=CCCC2(C)OC2C2OC(=O)C(CNCc3c(F)cccc3Cl)C2CC1 (stereo not drawn) [4ad]	> 30	
CCCCN1CCN(CC2C(=O)OC3C2CCC(C)=CCCC2(C)OC32)CC1 (stereo not drawn) [5x]	> 30	
C#CCNCC1C(=O)OC2C1CCC(C)=CCCC1(C)OC21 (stereo not drawn) [4d]	> 30	
CC1=CCCC2(C)OC2C2OC(=O)C(CNCc3ccc(C(F)(F)F)cc3)C2CC1 (stereo not drawn) [4v]	> 30	
CC1=CCCC2(C)OC2C2OC(=O)C(CNCc3ccccc3N(C)C)C2CC1 (stereo not drawn) [4q]	> 30	
CC1=CCCC2(C)OC2C2OC(=O)C(CN(C)C(C)C)C2CC1 (stereo not drawn) [2b]	> 30	
CC1=CCCC2(C)OC2C2OC(=O)C(CSCCO)C2CC1 (stereo not drawn) [compound 3]	> 30	
CC1=CCCC2(C)OC2C2OC(=O)C(CN3CCC(N4CCc5ccccc5C4)CC3)C2CC1 (stereo not drawn) [5k]	16.3	
CC1=CCCC2(C)OC2C2OC(=O)C(CNCc3cccc(OC(F)(F)F)c3)C2CC1 (stereo not drawn) [4y]	> 30	
CC1=CCCC2(C)OC2C2OC(=O)C(CNCc3ccc(Cl)cc3F)C2CC1 (stereo not drawn) [4i]	> 30	
CC1=CCCC2(C)OC2C2OC(=O)C(CNCC3CCOCC3)C2CC1 (stereo not drawn) [4f]	23.3	
CC1=CCCC2(C)OC2C2OC(=O)C(CN(C)CCO)C2CC1 (stereo not drawn) [2c]	5.2	
CC1=CCCC2(C)OC2C2OC(=O)C(CNCCO)C2CC1 (stereo not drawn) [4a]	19	
CC1=CCCC2(C)OC2C2OC(=O)C(CN3CCC4(CC3)OCCO4)C2CC1 (stereo not drawn) [5g]	15.2	
COCCN1CCN(CC2C(=O)OC3C2CCC(C)=CCCC2(C)OC32)CC1 (stereo not drawn) [5j]	19.5	
CC1=CCCC2(C)OC2C2OC(=O)C(CNCc3ccccc3C(F)(F)F)C2CC1 (stereo not drawn) [4u]	> 30	
CC1=CCCC2(C)OC2C2OC(=O)C(CNCc3c(F)cccc3C(F)(F)F)C2CC1 (stereo not drawn) [4ab]	> 30	
CC1=CCCC2(C)OC2C2OC(=O)C(CNCc3ccc(Cl)cc3Cl)C2CC1 (stereo not drawn) [4ac]	> 30	
CC1=CCCC2(C)OC2C2OC(=O)C(CNCc3ccc(OC(F)(F)F)cc3)C2CC1 (stereo not drawn) [4w]	> 30	

Structure (SMILES)	EC50 (MEC1 CLL cell line [1]) [µM]	other results
CCCC1CCN(CC2C(=O)OC3C2CCC(C)=CCCC2(C)OC32)CC1 (stereo not drawn) [5i]	22.2	
CC1=CCCC2(C)OC2C2OC(=O)C(CN(C)Cc3nc(-c4ccccn4)no3)C2CC1 (stereo not drawn) [2q]	> 30	
CC1=CCCC2(C)OC2C2OC(=O)C(CNCc3c(Cl)cccc3Cl)C2CC1 (stereo not drawn) [4t]	> 30	
CC1=CCCC2(C)OC2C2OC(=O)C(CN3CCN(C(C)(C)C)CC3)C2CC1 (stereo not drawn) [5s]	> 30	
COc1ccccc1CNCC1C(=O)OC2C1CCC(C)=CCCC1(C)OC21 (stereo not drawn) [4p]	> 30	
CC1=CCCC2(C)OC2C2OC(=O)C(CN(C)Cc3ccc(Cl)cc3)C2CC1 (stereo not drawn) [2h]	18.3	
CC1=CCCC2(C)OC2C2OC(=O)C(CNCCc3nccs3)C2CC1 (stereo not drawn) [4s]	> 30	
CC1=CCCC2(C)OC2C2OC(=O)C(CN3CCN(CC4CCCCC4)CC3)C2CC1 (stereo not drawn) [5u]	> 30	
Cc1nc(O)cc(C2CCNCC2)n1 [Amine 7]		EC50 (MEC1 CLL cell line [2]; MEC1 cells, alamarBlue, 1, 5f and 7 compared in parallel, CalcuSyn): could not be determined
CC1=CCCC2(C)OC2C2OC(=O)C(CN3CCN(C)CC3)C2CC1 (stereo not drawn) [5c]	> 30	
CC1=CCCC2(C)OC2C2OC(=O)C(CNCc3c(F)cccc3F)C2CC1 (stereo not drawn) [4z]	> 30	
CC1=CCCC2(C)OC2C2OC(=O)C(CN3CCC(N4CCCCC4)CC3)C2CC1 (stereo not drawn) [5r]	> 30	
CC1=CCCC2(C)OC2C2OC(=O)C(CN3CCN(CCc4cccs4)CC3)C2CC1 (stereo not drawn) [5t]	> 30	
CC1=CCCC2(C)OC2C2OC(=O)C(CN3CCn4c(nnc4C(F)(F)F)C3)C2CC1 (stereo not drawn) [5v]	> 30	
CC1=CCCC2(C)OC2C2OC(=O)C(CNCCOc3cccc(C)c3)C2CC1 (stereo not drawn) [4h]	21.9	
CC1=CCCC2(C)OC2C2OC(=O)C(CNCc3ccccc3OC(F)(F)F)C2CC1 (stereo not drawn) [4x]	> 30	
CC1=CCCC2(C)OC2C2OC(=O)C(CN(Cc3sccc3C)C3CC3)C2CC1 (stereo not drawn) [2r]	> 30	
CC1=CCCC2(C)OC2C2OC(=O)C(CNCc3c(F)cc(F)cc3F)C2CC1 (stereo not drawn) [4l]	> 30	
CC1=CCCC2(C)OC2C2OC(=O)C(CNCc3ccc(F)cc3C(F)(F)F)C2CC1 (stereo not drawn) [4aa]	> 30	
